From ChEMBL document CHEMBL5113527, “First-in-Class Hydrazide-Based HDAC6 Selective Inhibitor with Potent Oral Anti-Inflammatory Activity by Attenuating NLRP3 Inflammasome Activation” (J Med Chem, 2022) come the findings set out here.

The structures appear in SMILES notation. Activity calls are given as the source filed them. No cut-off for these calls is given here.

In series [1] the target is T1, Histone deacetylase 1 (Homo sapiens, UniProt Q13547). Nature of the series: Inhibition of HDAC1 (unknown origin).
T1 sequence (Q13547 whole entry): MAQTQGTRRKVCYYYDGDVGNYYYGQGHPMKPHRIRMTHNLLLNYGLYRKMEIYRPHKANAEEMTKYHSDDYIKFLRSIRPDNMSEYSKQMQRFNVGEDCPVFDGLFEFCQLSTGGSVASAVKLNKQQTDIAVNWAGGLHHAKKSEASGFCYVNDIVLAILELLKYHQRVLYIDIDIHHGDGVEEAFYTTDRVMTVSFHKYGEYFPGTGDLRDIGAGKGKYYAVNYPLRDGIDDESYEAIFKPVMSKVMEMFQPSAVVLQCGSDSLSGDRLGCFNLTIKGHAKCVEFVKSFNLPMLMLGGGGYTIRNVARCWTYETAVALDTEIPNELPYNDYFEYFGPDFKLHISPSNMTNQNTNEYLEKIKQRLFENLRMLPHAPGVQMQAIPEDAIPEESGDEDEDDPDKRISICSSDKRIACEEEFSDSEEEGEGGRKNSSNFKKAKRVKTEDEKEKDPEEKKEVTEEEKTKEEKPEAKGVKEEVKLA
In the next series the target is Histone deacetylase 2 (Homo sapiens, UniProt Q92769). Nature of the series: Inhibition of HDAC2 (unknown origin).
Sequence of Histone deacetylase 2 (Q92769 whole entry): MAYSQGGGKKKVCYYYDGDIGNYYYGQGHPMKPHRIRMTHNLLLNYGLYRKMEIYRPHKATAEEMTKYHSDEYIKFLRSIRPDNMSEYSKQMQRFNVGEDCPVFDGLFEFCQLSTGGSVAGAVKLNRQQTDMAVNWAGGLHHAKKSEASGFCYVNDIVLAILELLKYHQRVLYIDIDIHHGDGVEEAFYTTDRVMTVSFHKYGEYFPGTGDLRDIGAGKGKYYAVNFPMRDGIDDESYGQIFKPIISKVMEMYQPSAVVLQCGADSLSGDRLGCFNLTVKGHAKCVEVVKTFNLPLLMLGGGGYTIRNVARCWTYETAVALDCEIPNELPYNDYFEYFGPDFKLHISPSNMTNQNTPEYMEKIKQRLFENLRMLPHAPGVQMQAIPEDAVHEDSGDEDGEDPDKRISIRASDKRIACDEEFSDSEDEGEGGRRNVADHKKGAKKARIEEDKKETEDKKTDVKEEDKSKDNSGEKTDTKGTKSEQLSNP
In a further series the target is Histone deacetylase 3 (Homo sapiens, UniProt O15379). Nature of the series: Inhibition of HDAC3 (unknown origin).
Sequence of Histone deacetylase 3 (O15379 whole entry): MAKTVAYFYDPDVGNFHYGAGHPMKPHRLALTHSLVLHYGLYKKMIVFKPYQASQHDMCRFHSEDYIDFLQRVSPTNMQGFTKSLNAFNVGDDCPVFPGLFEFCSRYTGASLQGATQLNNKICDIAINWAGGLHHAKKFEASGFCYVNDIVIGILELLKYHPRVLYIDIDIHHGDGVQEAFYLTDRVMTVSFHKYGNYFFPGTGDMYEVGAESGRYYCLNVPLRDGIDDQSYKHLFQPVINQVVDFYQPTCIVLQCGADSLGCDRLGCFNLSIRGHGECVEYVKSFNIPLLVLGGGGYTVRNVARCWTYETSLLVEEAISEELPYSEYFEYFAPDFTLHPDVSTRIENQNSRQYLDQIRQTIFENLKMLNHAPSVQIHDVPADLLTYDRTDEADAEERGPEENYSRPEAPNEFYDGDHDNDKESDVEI
Series [2] in a line: AUC(0 to infinity) in CD-1 mouse at 3 mg/kg, iv measured after 0.083 to 24 hrs by LC-MS/MS analysis. The series is classed as ADME, organism-based. Particulars: in vivo. Details: dose 3 mg/kg, time upper 24 hrs, time lower 0.083 hrs, route iv.
Series [3] is described as follows: AUC(0 to infinity) in CD-1 mouse at 30 mg/kg, po measured after 0.083 to 24 hrs by LC-MS/MS analysis. Particulars: in vivo. The series is classed as ADME, organism-based. Details: dose 30 mg/kg, time upper 24 hrs, time lower 0.083 hrs, route po.
Series [4] is described as follows: Cmax in CD-1 mouse at 3 mg/kg, iv measured after 0.083 to 24 hrs by LC-MS/MS analysis. The conditions noted are these: in vivo. It is filed as ADME, organism-based. Details: time upper 24 hrs, time lower 0.083 hrs, dose 3 mg/kg, route iv.
Series [5] can be described thus: Inhibition of HDAC11(unknown origin) preincubated for 1 hr followed by substrate addition and measured after 2 hrs by fluorescence based microplate reader analysis. Details: species or system Homo sapiens.
A short description of series [6]: Cmax in CD-1 mouse at 30 mg/kg, po measured after 0.083 to 24 hrs by LC-MS/MS analysis. It is filed as ADME, organism-based. Details: time upper 24 hrs, time lower 0.083 hrs, dose 30 mg/kg, route po. The conditions noted are these: in vivo.
For series [7], the system named is J774.A1. Nature of the series: Inhibition of HDAC6/dynein interaction in mouse J774.A1 cells measured after 8 hrs by co-immunoprecipitation based Western blotting analysis. The series is classed as cell-based.
Series [8] concerns the target T1, Histone deacetylase 1. Nature of the series: Inhibition of recombinant HDAC1 (unknown origin) using Boc-Lys(acetyl)-AMC as substrate preincubated for 1 hr followed by substrate addition and measured after 2 hrs by fluorescence based microplate reader analysis.
For series [9], the system named is J774.A1. Nature of the series: Inhibition of NLRP3 inflammasome activation in mouse J774.A1 cells assessed as cleavage of pro-caspase 1 to p20 measured at 5 to 20 microM after […] by Western blot analysis. The series is classed as functional, cell-based. The conditions noted are these: dose 5-20 µM.
Series [10] deals with J774.A1. Nature of the series: Inhibition of NLRP3 inflammasome activation in mouse J774.A1 cells assessed as cleavage of pro-caspase 1 to p20 measured at 20 microM after […] by Western blot analysis. The series is classed as functional, cell-based. The conditions noted are these: DDE = dose-dependent effect. (In general: Immunoblotting shows a protein as a band on a membrane.)

What is called IC50 is the point on the concentration scale where inhibition reaches its midpoint. For the compound `O=C(NO)c1ccc(CC(=O)N(CCO)c2ccccc2)cc1`, the values for the IC50 on Histone deacetylase 1 [1], against Histone deacetylase 2 and on Histone deacetylase 3 were 0.842 µM, 2.21 µM and 2.08 µM, respectively.

What is called AUC is concentration integrated over time. High values mean high exposure, low ones low exposure. By Cmax is commonly meant the maximum level reached in the sampled fluid or tissue. Consider `CN1CCc2c(c3ccccc3n2Cc2ccc(C(=O)NO)cc2)C1` [TUBASTATIN A], for which the values for the exposure (AUC) in series [2] and in series [3] were 227 ng·h/mL and 134 ng·h/mL, respectively. Further, the results for the Cmax in [4] and in [6] were 1240 ng/mL and 135 ng/mL, respectively. This compound displayed an IC50 in series [5] above 5 µM. Also, in the series on J774.A1 [7], the inhibition result is “Active”.

Consider `O=C(CS)NCCCCNc1c(Cl)cc(Cl)c2cccnc12`, for which the IC50 at Histone deacetylase 1 [1] and at Histone deacetylase 1 [8] was 6.68 µM in each case.

As for `O=C(NO)c1ccc(CN2CCCc3ccccc32)cc1`, the IC50 stood at 32.8 µM at Histone deacetylase 2 and 29.5 µM against Histone deacetylase 3.

On to `CNS(=O)(=O)c1ccc(CCNC(=O)c2cc(Cl)ccc2OC)cc1`, for which, in the series on J774.A1 [9], the result was Active. For the same compound, the inhibition entry in the series on J774.A1 [10] was “Dde”.
